Experimental data reported in patent US12558428B2, “Heterobifunctional compounds and their use in treating disease” (Halda Therapeutics OpCo, Inc., priority 2024, dated 2026).
Like-named read-outs stand apart in the source and are kept apart here.

Assays:
Assay type in all cases: cell-based
[1] = system: T-Rex 293 cells having increased expression of estrogen receptor alpha protein; assay: Cellular growth inhibition assay, T-Rex 293 cells, (+) doxycycline; conditions: Table 7-A, T-Rex 293 cells with doxycycline (increased ERα expression), 72 hours, CellTiter-Glo, read-out: (+) Dox GI50
Procedure, shortened: (§1)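 Cells of an inducible ERα-expressing T-Rex 293 clone are seeded in charcoal-dextran FBS medium with or without 3 ng/mL doxycycline, then treated after 24 h with compound dilutions (0.5% DMSO) for 72 h. Growth inhibition is measured by CellTiter-Glo luminescence and expressed as GI50.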

[2] = system: MCF7 cells (ATCC #HTB-22); assay: Cellular growth inhibition assay, MCF7 cells purchased from ATCC; conditions: Table 8-A, MCF7 cells purchased from ATCC, six days, CellTiter-Glo, read-out: GI50
Procedure, shortened: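 GI50 values come from a four-parameter fit of CellTiter-Glo 2.0 luminescence after six days of compound exposure at 37° C. Seeding density depended on the source: 225 cells/well for ECACC MCF7, 1,500 for ATCC. Medium was RPMI 1640 with 10% FBS and 0.2 U/ml insulin.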

[3] = system: T-Rex 293 cells lacking increased expression of estrogen receptor alpha protein; assay: Cellular growth inhibition assay, T-Rex 293 cells, (−) doxycycline; conditions: Table 7-A, T-Rex 293 cells without doxycycline (lacking increased ERα expression), 72 hours, CellTiter-Glo, read-out: (−) Dox GI50
Procedure, shortened: as §1

Row | SMILES | GI50 ([1]; T-REx-293, 72 h) [nM] | GI50 ([2]; Homo sapiens, MCF7, 144 h) [nM] | GI50 ([3]; T-REx-293, 72 h) [nM] | GI50 [1] [nM] | GI50 [2] [nM] | GI50 [3] [nM]
1 | Cc1sc2c(c1C)C(c1ccc(NCCC3CCCN(CCOc4ccc([C@@H]5c6ccc(O)cc6CC[C@@H]5c5ccccc5)cc4)C3)cc1)=NC(Cc1ncco1)c1nnc(C)n1-2 (stereo partly drawn) [III-45] | < 50 | 50 to 500 | 50 to 500 |  |  | 
2 | Cc1sc2c(c1C)C(c1ccc(N[C@H]3CCN(CCOc4ccc([C@@H]5c6ccc(O)cc6CC[C@@H]5c5ccccc5)cc4)C[C@@H]3F)cc1)=NC(Cc1ncco1)c1nnc(C)n1-2 (stereo partly drawn) [III-46] | < 50 | < 50 | < 50 |  |  | 
3 | Cc1sc2c(c1C)C(c1ccc(N[C@H]3CCCCN(CCOc4ccc([C@@H]5c6ccc(O)cc6CC[C@@H]5c5ccccc5)cc4)C3)cc1)=NC(Cc1ncco1)c1nnc(C)n1-2 (stereo partly drawn) [III-47] | 50 to 500 | 50 to 500 | 50 to 500 |  |  | 
4 | Cc1sc2c(c1C)C(c1ccc(NCCCC3CCN(CCOc4ccc([C@@H]5c6ccc(O)cc6CC[C@@H]5c5ccccc5)cc4)CC3)cc1)=NC(Cc1ncco1)c1nnc(C)n1-2 (stereo partly drawn) [III-48] | < 50 | < 50 | 50 to 500 |  |  | 
5 | Cc1sc2c(c1C)C(c1ccc(NC[C@H]3CC[C@H](CNCCOc4ccc([C@@H]5c6ccc(O)cc6CC[C@@H]5c5ccccc5)cc4)CC3)cc1)=NC(Cc1ncco1)c1nnc(C)n1-2 (stereo partly drawn) [III-49] | < 50 | < 50 | 50 to 500 |  |  | 
6 | Cc1sc2c(c1C)C(c1ccc(N3CCN(C4CCN(CCOc5ccc([C@@H]6c7ccc(O)cc7CC[C@@H]6c6ccccc6)cc5)C4)CC3)cc1)=NC(Cc1ncco1)c1nnc(C)n1-2 (stereo partly drawn) [III-50] | < 50 | < 50 | 50 to 500 |  |  | 
7 | Cc1sc2c(c1C)C(c1ccc(NCC3CC4(C3)CN(CCOc3ccc([C@@H]5c6ccc(O)cc6CC[C@@H]5c5ccccc5)cc3)C4)cc1)=NC(Cc1ncco1)c1nnc(C)n1-2 (stereo partly drawn) [III-51] | < 50 | < 50 | 50 to 500 |  |  | 
8 | Cc1sc2c(c1C)C(c1ccc(N[C@H]3CC[C@@H](NCCOc4ccc([C@@H]5c6ccc(O)cc6CC[C@@H]5c5ccccc5)cc4)CC3)cc1)=NC(Cc1ncco1)c1nnc(C)n1-2 (stereo partly drawn) [III-52] | 50 to 500 | 50 to 500 | 50 to 500 |  |  | 
9 | Cc1sc2c(c1C)C(c1ccc(NCC3CCCN(CCOc4ccc([C@@H]5c6ccc(O)cc6CC[C@@H]5c5ccccc5)cc4)C3)cc1)=NC(Cc1ncco1)c1nnc(C)n1-2 (stereo partly drawn) [III-53] | 50 to 500 | 50 to 500 | 50 to 500 |  |  | 
10 | Cc1sc2c(c1C)C(c1ccc(N3CCC[C@@H](CNCCOc4ccc([C@@H]5c6ccc(O)cc6CC[C@@H]5c5ccccc5)cc4)C3)cc1)=NC(Cc1ncco1)c1nnc(C)n1-2 (stereo partly drawn) [III-54] | 50 to 500 | 50 to 500 | 50 to 500 |  |  | 
11 | Cc1sc2c(c1C)C(c1ccc(N3CCCC4(CCN(CCOc5ccc([C@@H]6c7ccc(O)cc7CC[C@@H]6c6ccccc6)cc5)CC4)C3)cc1)=NC(Cc1ncco1)c1nnc(C)n1-2 (stereo partly drawn) [III-55] | 50 to 500 | 50 to 500 | 500 to 2500 |  |  | 
12 | Cc1sc2c(c1C)C(c1ccc(NCC3CCCCN3CCOc3ccc([C@@H]4c5ccc(O)cc5CC[C@@H]4c4ccccc4)cc3)cc1)=NC(Cc1ncco1)c1nnc(C)n1-2 (stereo partly drawn) [III-56] | 50 to 500 | 50 to 500 | 50 to 500 |  |  | 
13 | Cc1sc2c(c1C)C(c1ccc(NCC3CCN(CCOc4ccc([C@@H]5c6ccc(O)cc6CC[C@@H]5c5ccccc5)cc4)C3)cc1)=NC(Cc1ncco1)c1nnc(C)n1-2 (stereo partly drawn) [III-57] | 50 to 500 | 50 to 500 | 50 to 500 |  |  | 
14 | Cc1sc2c(c1C)C(c1ccc(N[C@H]3CC[C@H](NCCOc4ccc([C@@H]5c6ccc(O)cc6CC[C@@H]5c5ccccc5)cc4)CC3)cc1)=NC(Cc1ncco1)c1nnc(C)n1-2 (stereo partly drawn) [III-58] | < 50 | 50 to 500 | 50 to 500 |  |  | 
15 | Cc1sc2c(c1C)C(c1ccc(N[C@H]3C[C@H]4CC[C@@H](C3)N4CCOc3ccc([C@@H]4c5ccc(O)cc5CC[C@@H]4c4ccccc4)cc3)cc1)=NC(Cc1ncco1)c1nnc(C)n1-2 (stereo partly drawn) [III-59] | < 50 | 50 to 500 | 50 to 500 |  |  | 
16 | Cc1sc2c(c1C)C(c1ccc(N3CCOC4(CCN(CCOc5ccc([C@@H]6c7ccc(O)cc7CC[C@@H]6c6ccccc6)cc5)CC4)C3)cc1)=CC(Cc1ncco1)c1nnc(C)n1-2 (stereo partly drawn) [III-60] | 50 to 500 | 50 to 500 | 50 to 500 |  |  | 
17 | Cc1sc2c(c1C)C(c1ccc(N3CC[C@@H](CNCCOc4ccc([C@@H]5c6ccc(O)cc6CC[C@@H]5c5ccccc5)cc4)C3)cc1)=NC(Cc1ncco1)c1nnc(C)n1-2 (stereo partly drawn) [III-61] | < 50 | < 50 | 50 to 500 |  |  | 
18 | Cc1sc2c(c1C)C(c1ccc(N3CCC(C)(CNCCOc4ccc([C@@H]5c6ccc(O)cc6CC[C@@H]5c5ccccc5)cc4)CC3)cc1)=NC(Cc1ncco1)c1nnc(C)n1-2 (stereo partly drawn) [III-62] | < 50 | 50 to 500 | 50 to 500 |  |  | 
19 | Cc1sc2c(c1C)C(c1ccc(N3CCN(C4CCN(CCOc5ccc([C@@H]6c7ccc(O)cc7CC[C@@H]6c6ccccc6)cc5)CC4)CC3)cc1)=NC(Cc1ncco1)c1nnc(C)n1-2 (stereo partly drawn) [III-63] | < 50 | 50 to 500 | 50 to 500 |  |  | 
20 | Cc1sc2c(c1C)C(c1ccc(N[C@@H]3C[C@H]4CCC[C@@H](C3)N4CCOc3ccc([C@@H]4c5ccc(O)cc5CC[C@@H]4c4ccccc4)cc3)cc1)=NC(Cc1ncco1)c1nnc(C)n1-2 (stereo partly drawn) [III-64] | 50 to 500 | 50 to 500 | 50 to 500 |  |  | 
21 | Cc1sc2c(c1C)C(c1ccc(N3CCC4(CC3)CC(NCCOc3ccc([C@@H]5c6ccc(O)cc6CC[C@@H]5c5ccccc5)cc3)C4)cc1)=NC(Cc1ncco1)c1nnc(C)n1-2 (stereo partly drawn) [III-65] | < 50 | 50 to 500 | 50 to 500 |  |  | 
22 | Cc1sc2c(c1C)C(c1ccc(N3CCO[C@@H](CNCCOc4ccc([C@@H]5c6ccc(O)cc6CC[C@@H]5c5ccccc5)cc4)C3)cc1)=NC(Cc1ncco1)c1nnc(C)n1-2 (stereo partly drawn) [III-66] | 50 to 500 | 50 to 500 | 50 to 500 |  |  | 
23 | Cc1sc2c(c1C)C(c1ccc(N3CCN(CC4CN(c5ccc([C@@H]6c7ccc(O)cc7CC[C@@H]6c6ccccc6)cc5)C4)CC3)cc1)=N[C@@H](C)c1nnc(C)n1-2 [III-67] | < 50 | < 50 | < 50 |  |  | 
24 | Cc1sc2c(c1C)C(c1ccc(N3CCN(CC4CN(c5ccc([C@H]6c7ccc(O)cc7CC[C@H]6c6ccccc6)cc5)C4)CC3)cc1)=N[C@@H](C)c1nnc(C)n1-2 [III-68] | 50 to 500 | 50 to 500 | 500 to 2500 |  |  | 
25 | Cc1sc2c(c1C)C(c1ccc(OCC3CN(CC4CCN(c5ccc([C@H]6c7ccc(O)cc7CC[C@H]6c6ccccc6)cc5)CC4)C3)cc1)=N[C@@H](C)c1nnc(C)n1-2 [III-69] | 50 to 500 | 50 to 500 | 50 to 500 |  |  | 
26 | Cc1sc2c(c1C)C(c1ccc(OCC3CN(CC4CCN(c5ccc([C@@H]6c7ccc(O)cc7CC[C@@H]6c6ccccc6)cc5)CC4)C3)cc1)=N[C@@H](C)c1nnc(C)n1-2 [III-70] | < 50 | < 50 | 50 to 500 |  |  | 
27 | Cc1sc2c(c1C)C(c1ccc(N3CCC(CN4CCN(c5ccc([C@H]6c7ccc(O)cc7CC[C@H]6c6ccccc6)cc5)CC4)CC3)cc1)=N[C@H](Cc1ncco1)c1nnc(C)n1-2 [III-71] |  |  |  | > 2500 | > 2500 | > 2500
28 | Cc1sc2c(c1C)C(c1ccc(N3CCC(CN4CCN(c5ccc([C@H]6c7ccc(O)cc7CC[C@H]6c6ccccc6)cc5)CC4)CC3)cc1)=N[C@H](Cc1ncco1)c1nnc(C)n1-2 [III-72] |  |  |  | 500 to 2500 | 500 to 2500 | 500 to 2500
29 | Cc1sc2c(c1C)C(c1ccc(N3CCC(CN4CCN(c5ccc([C@@H]6c7ccc(O)cc7CC[C@@H]6c6ccccc6)cc5)CC4)CC3)cc1)=N[C@@H](Cc1ncco1)c1nnc(C)n1-2 [III-73] | < 50 | < 50 | 500 to 2500 |  |  | 
30 | Cc1sc2c(c1C)C(c1ccc(N3CCC(CN4CCN(c5ccc([C@@H]6c7ccc(O)cc7CC[C@@H]6c6ccccc6)cc5)CC4)CC3)cc1)=N[C@H](Cc1ncco1)c1nnc(C)n1-2 [III-74] | < 50 | 50 to 500 | 50 to 500 |  |  | 
